{
  "source": "patent US9920014B2",
  "about": "“Selective inhibition of bacterial topoisomerase I” (THE FLORIDA INTERNATIONAL BOARD OF TRUSTEES MODESTO A. …, priority 2013, dated 2018)",
  "target": "E. coli DNA Gyrase (Escherichia coli, UniProt P0AES4+P0AES6)",
  "sequence (P0AES4 whole entry, one chain of several)": "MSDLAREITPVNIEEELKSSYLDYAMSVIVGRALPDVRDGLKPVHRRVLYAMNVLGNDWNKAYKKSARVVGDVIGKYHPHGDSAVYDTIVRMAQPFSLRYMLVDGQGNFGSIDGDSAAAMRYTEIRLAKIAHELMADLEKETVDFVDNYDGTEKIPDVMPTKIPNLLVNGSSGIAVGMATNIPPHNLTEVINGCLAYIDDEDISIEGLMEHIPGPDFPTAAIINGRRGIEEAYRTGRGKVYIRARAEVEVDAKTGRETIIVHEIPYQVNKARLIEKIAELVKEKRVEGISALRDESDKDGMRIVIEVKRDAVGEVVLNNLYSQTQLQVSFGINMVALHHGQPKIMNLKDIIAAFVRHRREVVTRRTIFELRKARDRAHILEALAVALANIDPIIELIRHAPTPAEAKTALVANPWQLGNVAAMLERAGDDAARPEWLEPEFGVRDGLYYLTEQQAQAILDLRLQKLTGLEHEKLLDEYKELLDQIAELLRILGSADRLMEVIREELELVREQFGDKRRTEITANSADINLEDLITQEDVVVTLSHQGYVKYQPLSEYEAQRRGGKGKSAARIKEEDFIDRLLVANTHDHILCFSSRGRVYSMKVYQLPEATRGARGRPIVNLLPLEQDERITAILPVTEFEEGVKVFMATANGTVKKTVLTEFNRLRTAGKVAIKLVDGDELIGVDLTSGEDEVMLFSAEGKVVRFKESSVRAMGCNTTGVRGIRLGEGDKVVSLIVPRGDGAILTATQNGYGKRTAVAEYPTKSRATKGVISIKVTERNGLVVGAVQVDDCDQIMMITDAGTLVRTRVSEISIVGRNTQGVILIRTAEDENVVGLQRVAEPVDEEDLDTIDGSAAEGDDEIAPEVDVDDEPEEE",
  "assay": "Inhibition assay against E. coli DNA gyrase (plasmid supercoiling, agarose gel)",
  "format": "biochemical",
  "settings": "1 to 50 μM compound",
  "experimental": "Inhibition Assays Against E. coli DNA Gyrase:\nThe reaction mixture (30 μl) contained 35 mM Tris-HCl at pH 7.5, 24 mM KCl, 4 mM MgCl2, 2 mM DTT, 1.75 mM ATP, 5 mM spermidine, 0.1 mg/ml BSA, 6.5% glycerol, 250 ng of the relaxed plasmid pBAD-GFPuv, 0.5 units of E. coli DNA Gyrase, and one of the compounds at a final concentration that ranges from 1 to 50 μM. All components were assembled on ice and incubated for 30 minutes at 37° C. After the incubation, the reactions were terminated by extraction with an equal volume of phenol. The topological state of the DNA samples was analyzed with 1% agarose gel electrophoresis in 1×TAE buffer, pH 7.8. Following electrophoresis, the agarose gel was stained with Ethidium Bromide, destained, and photographed under UV light. The intensity of DNA topoisomers was determined using KODAK 1D Image Analysis Software.",
  "data": [
    {"smiles": "CN1CCN(c2ccc3[nH]c(-c4ccc5[nH]c(-c6ccc(O)cc6)nc5c4)nc3c2)CC1", "note": "[Hoechst 33258, reference compound]", "values": [
      {"measurement": "inhibition of DNA gyrase's activities", "result": "did not inhibit"}
    ]}
  ]
}
